According to patent US20250338846A1, “COMPOSITIONS HAVING PESTICIDAL UTILITY AND PROCESSES RELATED THERETO” (CORTEVA AGRISCIENCE, LLC, priority 2022, published 2025):

Legend:
Type in all cases: in vivo
[1] = system: Cotton Aphid (Aphis gossypii, APHIGO); experiment: Bioassay 7: Cotton Aphid, foliar spray on infested cotton seedlings, live aphids counted three days after treatment
Description: where X=No. of live larvae on solvent check and Y=No. of live larvae on treated diet. In Table B6 the “Expected % Control” was calculated using the method described in Colby S. R., Weeds, 1967, 15, 20-22. Bioassay 7: Cotton Aphid (Aphis gossypii, APHIGO) (“CA”).
Stock solutions of Formula One and one or more of the active ingredients were prepared at concentrations of 1 mg/mL using a 1:1 mixture of acetone: methanol as a diluent. The stock solutions were prepared with Formula One as well as for each of the active ingredients individually. Test solutions were prepared from the stock solutions. Test solutions were prepared containing Formula One, the individual active ingredients, and mixtures of Formula One with each of the active ingredients. The test solutions for Formula One and the individual active ingredients were prepared by adding 1.5 mL of stock solution to a 30 mL glass vial, then adding 1.5 mL of 1:1 acetone: methanol solvent, followed by the addition of 27 mL water with 0.025% Tween® 20 to create a […]. Each test solution was serially diluted to create desired doses of test solutions ranging from 0.000001 to 0.0025% (w/v). The test solutions were tested against CA using the following procedure: cotton seedlings were grown in 3-inch pots with one true leaf (2-5 cm in diameter) were used as test substrate. The seedlings were infested with 20-50 CA (wingless adult and nymph stages) one day prior to chemical application. Four pots with individual seedlings were used for each treatment. A hand-held aspirator-type sprayer was used for spraying a solution to both sides of […] leaves until runoff. Reference plants (solvent check) were sprayed with the diluent only (0.025% Tween® 20 and 10% acetone:methanol (1:1) in water). Treated plants were held in a holding room for three days at approximately 25° C. and ambient relative humidity (RH about 20% to about 45%) prior to grading. Evaluation was conducted by counting the number of live aphids per plant under a microscope three days after treatment. Percent control was measured using Abbott's correction formula (W. S. Abbott, J. Econ. Entomol. 18 (1925), pp. 265-267) as follows:
(§1) where X=No. of live aphids on solvent check plants and Y=No. of live aphids on treated plants. In Table B1 the “Expected % Control” was calculated using the method described in Colby S. R., Weeds, 1967, 15, 20-22. Bioassay 8: Sweet Potato Whitefly (Bemisia tabaci, BEMITA) (“SPW”).

[2] = system: Sweet Potato Whitefly (Bemisia tabaci, BEMITA); experiment: Bioassay 8: Sweet Potato Whitefly, spray on cotton seedlings at crawler emergence, nymphs counted 7-9 days after treatment; conditions: AI alone 0.1 (10^-5) Wt %
Description: as §1
(§2) Stock solutions were prepared with Formula One as well as for each of the active ingredients individually. Test solutions were prepared from the stock solutions. Test solutions were prepared containing Formula One, the individual active ingredients, and mixtures of Formula One with each of the active ingredients. The test solutions for Formula One and the individual active ingredients were prepared by adding 500 μL of stock solution to a 25 mL glass vial, then adding 500 μL of acetone, followed by the addition of 9 mL water with 0.025% Tween®) 20 to create a 0.001% (w/v) solution. The test solutions containing mixtures of Formula One and the individual active ingredients were prepared by adding 500 μL of the active ingredient stock solution to a 25 mL glass vial, followed by 500 μL of the Formula One stock solution, then by the addition of 9 mL water with 0.025% Tween®) 20 to create a test solution containing 0.001% (w/v) Formula One and 0.001% (w/v) of the active ingredient. Each test solution was serially diluted to create desired doses of test solutions (0.001% (w/v), 0.0001% (w/v), 0.00001% (w/v), 0.000001% (w/v), 0.0000001% (w/v), 0.000008% (w/v) and 0.00000001% (w/v)).
(§3) The test solutions were tested against SPW using the following procedure: Cotton seedlings grown in 3-inch pots, pruned so that only one true leaf remained, were used as test substrate. Adult B. tabaci were allowed to colonize the cotton plants and lay eggs for 24 hours after which all adults were removed from the plants using compressed air. Plants were monitored for egg development and, when crawler emergence was underway (>25% emergence based on visual examination using a microscope), the plants were sprayed using the test solutions and methods described above for green peach aphids (GPA). Treated plants were held in a holding room at approximately 25° C. and ambient relative humidity (RH) prior to grading. Evaluation was conducted by counting the number of developed 2-3 instar nymphs per plant under a microscope 7-9 days after treatment. Percent control was measured using Abbott's correction formula (W. S. Abbott, J. Econ. Entomol. 18 (1925), pp. 265-267) as follows:
(§4) where X=No. of live nymphs on solvent check plants and Y=No. of live nymphs on treated plants. In Table B2 the “Expected % Control” was calculated using the method described in Colby S. R., Weeds, 1967, 15, 20-22. Bioassay 9: Diamondback Moth (Plutella xylostella, PLUTMA) (DBM).

[3] = system: Diamondback Moth (Plutella xylostella, PLUTMA); experiment: Bioassay 9: Diamondback Moth, leaves of track-sprayed cabbage plants, mortality and feeding damage scored
Description: as §4
(§5) Stock solutions were prepared with Formula One as well as for each of the active ingredients individually. Test solutions were prepared from the stock solutions. Test solutions were prepared containing Formula One, the individual active ingredients, and mixtures of Formula One with each of the active ingredients. The test solution for Formula One was prepared by adding 500 μL of the stock solution to a 25 mL glass vial, then adding 500 μL of a 9:1 mixture of acetone: water. The individual active ingredients were prepared by adding 500 μL of stock solution to a 25 mL glass vial, then adding 500 μL of a 9:1 mixture of acetone: water. The test solutions containing mixtures of Formula One and the individual active ingredients were prepared by adding 500 μL of the active ingredient stock solution to a 25 mL glass vial, followed by 500 μL of the Formula One stock solution, creating a test solution containing 4000 ppm Formula One and 0.4% (w/v) of the active ingredient. Each test solution was serially diluted to create desired doses of test solutions (0.4% (w/v), 0.04% (w/v), 0.004% (w/v), 0.0004% (w/v), 0.00004% (w/v), and 0.000004% (w/v)). In test solutions containing mixtures of Formula One and the active ingredients, the active ingredients were diluted as described above, but the Concentration of Formula One was held constant (0.4% (w/v)). The highest dose test solution (0.4% (w/v)) was discarded, leaving 5 test solution concentrations used in the test.
Cabbage seedlings, grown in 3-inch pots with 2-3 small (3-5 centimeter (cm)) true leaves, were used as test substrate. Cabbage plants were sprayed with desired concentrations of Formula One and active ingredients or their mixtures using a track Sprayer. Reference plants (solvent check) were sprayed with diluent only (0.025% Tween® 20 and 10% acetone:methanol (1:1) in water). The sprayed cabbage plants were allowed to dry for 1 hour, after which leaves from each treatment were placed in a cell of a plastic tray. One leaf per cell and 8 replicates for each cell. The tested doses ranged between 0.000001% (w/v) to 0.0002% (w/v). One 2nd instar DBM larvae were placed in each cell of the tray and allowed to feed on the cabbage foliage for […] after which the mortality and feeding damage were scored. Test trays were held at approximately 26° C. and ambient relative humidity (RH) prior to grading. The number of live larvae were recorded from each cell and percent control was measured using Abbott's correction formula (W. S. Abbott, J. Econ. Entomol. 18 (1925), pp. 265-267) as follows:
where X=No. of live larvae on solvent check and Y=No. of live larvae on treated diet. In Table B6 the “Expected % Control” was calculated using the method described in Colby S. R., Weeds, 1967, 15, 20-22.

[4] = system: Sweet Potato Whitefly (Bemisia tabaci, BEMITA); experiment: Bioassay 2: Sweet Potato Whitefly, spray on cotton seedlings at crawler emergence, nymphs counted 7-9 days after treatment
Description: as §2, with “(w/v),” for “(w/v), 0.000008% (w/v)”
as §3
where X=No. of live nymphs on solvent check plants and Y=No. of live nymphs on treated plants. In Table B2 the “Expected % Control” was calculated using the method described in Colby S. R., Weeds, 1967, 15, 20-22. Bioassay 3: Western Flower Thrips (Frankliniella occidentalis, FRANOC) (“WFT”).

[5] = system: Diamondback Moth (Plutella xylostella, PLUTMA); experiment: Bioassay 6: Diamondback Moth, artificial lepidopteran diet, live larvae after 5 days; conditions: DBM; AI alone 0.04 % w/v
Description: where X=No. of live nymphs on solvent check and Y=No. of live nymphs on treated bean segments. In Table B5 the “Expected % Control” was calculated using the method described in Colby S. R., Weeds, 1967, 15, 20-22. Bioassay 6: Beet Armyworm (Spodoptera exigua, LAPHEG) (BAW), and Diamondback Moth (Plutella xylostella, PLUTMA) (DBM).
as §5
The test solutions were tested against BAW and DBM using the following procedure: An artificial lepidopteran diet (Multispecies Lepidopteran Diet, Southland Products) was distributed in 128-cell bioassay trays (Frontier Agricultural Sciences™). 50 μL of test solution was pipetted into a cell in the bioassay tray. (The test solution doses of 0.04% (w/v), 0.004% (w/v), 0.0004% (w/v), 0.00004% (w/v), and 0.000004% (w/v) translated to concentrations of 5, 0.5, 0.05, 0.005, and 0.0005 ug/cm^2 on the diet, respectively.) A reference treatment (solvent check) was treated with the diluent only. […] After 5 days, the number of live larvae were recorded from each cell and percent control was measured using Abbott's correction formula (W. S. Abbott, J. Econ. Entomol. 18 (1925), pp. 265-267) as follows:
where X=No. of live larvae on solvent check and Y=No. of live larvae on treated diet. In Table B6 the “Expected % Control” was calculated using the method described in Colby S. R., Weeds, 1967, 15, 20-22. […]

Molecule: Tetraniliprole
- Average % Control A1 ([1]; AI alone 0.1 (10^-5) Wt %): 44.54%
- Average % Control A1 ([1]; AI alone 0.8 (10^-5) Wt %): 7.23%
- Average % Control A1 [2]: 40.00%
- Average % Control AI ([3]; AI alone 0.1 (10^-5) Wt %): 16.67%
- Average % Control AI ([3]; AI alone 1 (10^-5) Wt %): 50.00%
- Average % Control AI ([3]; AI alone 5 (10^-5) Wt %): 41.67%

Molecule: CC1(C)[C@H](C(=O)O[C@H](C#N)c2cccc(Oc3ccccc3)c2)[C@@H]1C=C(Br)Br [Deltamethrin]
- Average % Control A1 ([1]; AI alone 0.78 (10^-5) Wt %): 26.73%
- Average % Control A1 ([1]; AI alone 2.5 (10^-5) Wt %): 34.23%
- Average % Control A1 ([1]; AI alone 10 (10^-5) Wt %): 34.23%
- Average % Control A1 [2]: 35.94%
- Average % Control AI ([3]; AI alone 5 (10^-5) Wt %): 30.43%
- Average % Control AI ([3]; AI alone 10 (10^-5) Wt %): 15.22%
- Average % Control AI ([3]; AI alone 20 (10^-5) Wt %): 30.43%

Molecule: C[C@]1(COC(=O)C2CC2)[C@@H]2C[C@H](O)[C@@]3(C)Oc4cc(-c5cccnc5)oc(=O)c4[C@H](O)[C@@H]3[C@@]2(C)CC[C@@H]1OC(=O)C1CC1 [Afidopyropen]
- Average % Control AI ([4]; AI alone 0.1 (10-5) % w/v): 0%
- Average % Control AI ([4]; AI alone 1 (10-5) % w/v): 0%
- Average % Control AI [5]: 25%

Molecule: Cc1cc(C)c(C2=C(OC(=O)CC(C)(C)C)C3(CCCC3)OC2=O)c(C)c1 [Spiromesifen]
- Average % Control AI ([4]; AI alone 0.1 (10-5) % w/v): 0%
- Average % Control AI [5]: 0%
